The values below are quoted from earlier work in patent US10264790B2, “Use of certain herbicide combinations based on iodosulfuron in teff plants” (BAYER CROPSCIENCE AKTIENGESELLSCHAFT, priority 2016, dated 2019).

Like-named read-outs stand apart in the source and are kept apart here.

One data set has as its system teff (Eragrostis tef). Particulars: for yield reductions: field studies Kansas, teff; for injury on teff: in vivo.
The subject of data set [1] is teff. Particulars: for levels of weed control, teff safety and teff yields: postemergence applications; for injury to teff: applied postemergence.
The subject of data set [2] is Phalaris paradoxa and Setaria pallidefusca. Particulars: pot experiments; applied pre-emergence (diclofop-methyl only with a safener).
In data set [3] the test system is teff. As to conditions: for selectivity in teff: with or without the safener.
Where [4] appears, read: postemergence treatments, field studies Oregon 2009.

Turning to `CCC/C(=N\OCC)C1=C(O)CC(CC(C)SCC)CC1=O` (centres unmarked) [sethoxydim], in the data set on teff (Eragrostis tef), the yield reductions is 50%.

Regarding `COc1nc(C)nc(=NC(=O)NS(=O)(=O)c2ccccc2C(=O)O)[nH]1` [metsulfuron], the “levels of weed control, teff safety and teff yields” value in the data set on teff [1] (field studies Oregon 2009) is on record as “highest levels”. Besides, in the data set with teff [1] (setting [4]), the “teff injury (in words)” value is “little or no teff injury”.

On to `COc1cc(OC)nc(NC(=O)NS(=O)(=O)c2ncccc2C(=O)N(C)C)n1` [nicosulfuron], for which the injury to teff in the data set on teff [1] (field studies Oregon 2009) is listed as 20%.

As for `COc1nn(C(=O)NS(=O)(=O)c2ccccc2OC(F)(F)F)c(=O)n1C` [flucarbazone], in the data set with teff [1] (setting [4]), the “teff injury (in words)” value was “little or no teff injury”.

Take `COc1nc(C)nc(NC(=O)NS(=O)(=O)c2ccccc2Cl)n1` [chlorsulfuron]: the “control of Phalaris paradoxa and Setaria pallidefusca” value in data set [2] was “controlled both weed species”. Besides, in the data set on teff [1] (in vivo), the “teff injury (in words)” value is “little or no teff injury”. Moreover, in the data set with teff [1] (field studies Oregon 2009), the “levels of weed control, teff safety and teff yields” value is given as “highest levels”. For the same compound, the “safety / tolerance on teff” value in the data set on teff [3] (in vivo) is on record as “safe on teff”.

For the compound `COc1nc(C)nc(N(C)C(=O)NS(=O)(=O)c2ccccc2C(=O)O)n1` [tribenuron], in the data set on teff [1] (setting [4]), the “teff injury (in words)” value was “little or no teff injury”.

`CCC(CC)Nc1c([N+](=O)[O-])cc(C)c(C)c1[N+](=O)[O-]` [pendimethalin]: in the data set on teff [3] (pot experiments), the selectivity in teff entry is on record as “failed to show selectivity”.

On to `O=C(O)c1nc(Cl)ccc1Cl` [clopyralid], for which the “teff injury (in words)” value in the data set on teff [1] (setting [4]) is given as “little or no teff injury”.

With `COc1ccc(NC(=O)N(C)C)cc1Cl` [metoxuron], in the data set on teff [3] (pot experiments), the selectivity in teff result was “failed to show selectivity”.

Consider `COc1nc(C)nc(NC(=O)NS(=O)(=O)c2ccccc2CCC(F)(F)F)n1` [prosulfuron], for which the injury on teff result with teff (Eragrostis tef) is “less than 5%”.

For `CS(=O)(=O)c1ccc(C(=O)C2C(=O)CCCC2=O)c([N+](=O)[O-])c1` [mesotrione], in the data set with teff [1] (field studies Oregon 2009), the injury to teff is 63%. Besides, the “injury to the teff” value in the data set with teff [1] (applied preemergence, field studies Oregon 2009) was 100%. Further, the yield reductions in the data set on teff (Eragrostis tef) was 30%.

For the compound `Nc1c(Cl)c(F)nc(OCC(=O)O)c1Cl` [fluroxypyr], the “teff injury (in words)” value in the data set on teff [1] (in vivo) was “little or no teff injury”.

With `COc1cc(OC)nc(NC(=O)NS(=O)(=O)c2c(C(=O)O)c(Cl)nn2C)n1` [halosulfuron], the injury on teff entry with teff (Eragrostis tef) is “less than 5%”.

With `O=C(O)COc1ccc(Cl)cc1Cl` [2,4-D, (2,4-dichlorophenoxy)acetic acid], the injury on teff result in the data set with teff (Eragrostis tef) is listed as “less than 5%”.

For the compound `Cn1nc(-c2cc(OCC(=O)O)c(Cl)cc2F)c(Cl)c1OC(F)F` [pyraflufen], the “teff injury (in words)” value with teff [1] (setting [4]) was “little or no teff injury”.

In the case of `COc1cc(OC)nc(NC(=O)NS(=O)(=O)c2cc(C(=O)O)ccc2CNS(C)(=O)=O)n1` [mesosulfuron, 2-[(4,6-dimethoxypyrimidin-2-ylcarbamoyl)sulfamoyl]-α-methanesulfonamido-p-toluic acid], in the data set on teff [1] (field studies Oregon 2009), the injury to teff is 10%.

Consider `CCc1cc(C)cc(CC)c1-c1c(OC(=O)C(C)(C)C)n2n(c1=O)CCOCC2` [pinoxaden], for which the injury to teff in the data set on teff [1] (field studies Oregon 2009) is recorded as 70%.

As to `COC(=O)C(C)Oc1ccc(Oc2ccc(Cl)cc2Cl)cc1` (centres unmarked) [Diclofop-methyl], the “control of Phalaris paradoxa and Setaria pallidefusca” value in data set [2] is “controlled both weeds”. Moreover, the “safety / tolerance on teff” value in the data set on teff [3] (pot experiments, applied pre-emergence (diclofop-methyl only with a safener)) was “tolerated by teff”.

Consider `CCc1cccc(CC)c1N(COC)C(=O)CCl` [alachlor], for which the selectivity in teff result in the data set with teff [3] (pot experiments) is reported as “failed to show selectivity”.
